# Molecular target: T1, N-acylethanolamine-hydrolyzing acid amidase (Homo sapiens, UniProt Q02083)
# T1 sequence (Q02083 whole entry): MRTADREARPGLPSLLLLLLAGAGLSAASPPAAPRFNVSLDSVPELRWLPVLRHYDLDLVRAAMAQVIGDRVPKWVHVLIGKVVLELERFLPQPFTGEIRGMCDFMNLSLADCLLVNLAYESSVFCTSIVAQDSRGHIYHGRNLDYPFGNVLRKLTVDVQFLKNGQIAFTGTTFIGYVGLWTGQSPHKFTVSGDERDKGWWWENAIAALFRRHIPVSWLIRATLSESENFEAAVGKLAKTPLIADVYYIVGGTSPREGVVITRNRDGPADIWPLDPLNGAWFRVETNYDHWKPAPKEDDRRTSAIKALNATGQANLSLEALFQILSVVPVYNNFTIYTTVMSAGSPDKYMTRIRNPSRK
# Experiment: Determining Endocannabinoid Hydrolase Activity: In the Experimental example, endocannabinoid hydrolases used were Fatty Acid Amide Hydrolase (FAAH) and N-acylethanolamide hydrolyzing acid amidase (NAAA), which were prepared by the method described in the document (PMCID: PMC3423427, PMC3723234, PMC2692831, PMC3382457). The preparation method was as followed: a plasmid (pCDNA3.1/NAAA or pCDNA3.1/FAAH) carrying a whole NAAA/FAAH gene was constructed, wherein the plasmid carried Cytomegalovirus (CMV) promoter and Neomycin selectable gene; the plasmid was transformed into HEK-293 cell via lipid medium, stable cell lines expressing NAAA/FAAH at a high level were obtained by G418 screening and Western-blot method. HEK-293 recombinant cells were cultured and collected, washed with PBS for 2-3 times, and ultrasonically treated in 20 mM Tris-HCl containing 0.32 M sucrose, then repeatedly frozen and thawed twice, and then centrifuged at 4° C., 800 g for 15 min. The supernatant (i.e., the desired protein) was collected, the protein concentration was determined by BCA method, and the protein was diluted to a concentration of 1 mg/mL, and sub-packaged and stored in a refrigerator at −80° C. for further use.In the Experimental example, PBS solution used was prepared as followed: 8 g NaCl, 0.2 g KCl, 1.44 g Na2HPO4, and 0.24 g KH2PO4 were dissolved in 1 L ultrapure water, and the resultant solution was subjected to moist heat sterilization and stored at 4° C.30 μL (1 mg/mL) endocannabinoid hydrolase was added to a sample vial, and 2 μL DMSO (Blank control group) or a different concentration of a test compound (Compounds 1-46 prepared in the Examples according to the invention) was further added. The reaction was carried out at 37° C. for 10 min. 170 μL buffer (the buffer consisted of 50 mM disodium Hydrogen Phosphate, 0.1% Triton X-100, 3 mM DTT, 150 μL) containing enzymatic hydrolysis substrate (the substrate was a heptadecenoyl ethanolamine containing a double bond and 17 carbon atoms, abbreviated as 17:1 FAE) was further added, wherein the concentration of 17:1 FAE was 5 μM. The reaction was carried out at 37° C. for 30 min, and 200 μL methanol solution containing internal standard (the internal standard was margaric acid, at a concentration of 1 nmol) was then added to stop the reaction. LC-MS was used to determine the yield of the hydrolysate 17:1 FA (i.e., a heptadecenoic acid containing a double bond) of 17:1 FAE, then a graph was plotted with Graphpad Prism 5. Thereby, the IC50 of the test compound on endocannabinoid hydrolase was determined.By the method above, the inhibitory effects of the Compounds 1-46 prepared in the invention on NAAA and FAAH were determined.
row,Structure (SMILES),IC50 [nM]
1,O=C(CCCCCc1ccccc1)N1CCOC1=O,210
2,O=C1OCCN1C(=O)c1ccc(Oc2cccc(Cl)c2)cc1,370
3,O=C(CCCCCc1ccc(Cl)cc1)N1CCOC1=O,5100
4,O=C(CCCCc1ccc(F)cc1)N1CCOC1=O,850
5,O=C(CCCCCc1ccsc1)N1CCOC1=O,340
6,O=C(CCCCCCc1ccc(Cl)cc1Cl)N1CCOC1=O,2200
7,O=C(CCCCCc1cccc(F)c1)N1CCOC1=O,250
8,O=C(CCCCCC1CCCCC1)N1CCOC1=O,180
9,O=C1OCCN1C(=O)c1cccc(OCc2ccccc2)c1,78600
10,O=C1OCCN1C(=O)c1ccc(OCc2ccccc2)cc1,3400
11,O=C(CCCCCc1c[nH]c2ccccc12)N1CCOC1=O,23500
12,O=C1OCCN1C(=O)c1cccc(-c2ccccc2)c1,9500
13,O=C(CCCCCCCc1ccccc1)N1CCOC1=O,21000
14,O=C(CCCCCC1CCCNC1)N1CCOC1=O (stereo not given),130
15,C[C@@H]1COC(=O)N1C(=O)CCCCCc1ccccc1,910
16,CC(=O)C[C@@H]1COC(=O)N1C(=O)CCCCCc1ccc(C)cc1,450
17,O=C(CCCCc1cccc(Cl)c1)N1CCOC1=O,370
18,CCCCCCCCCCCCCCCC(=O)N1CCNC1=O,5400
19,O=C(CCCCCc1ccc2cc(F)ccc2c1)N1CCOC1=O,5700
20,O=C(CCCCc1ccccc1)N1CCOC1=O,11200
21,CCCCCCCCCCCCCCCC(=O)N1CCOC1=O,46800
22,CC(=O)C[C@@H]1COC(=O)N1C(=O)CCCCCc1cccc(C)c1,380
23,O=C(CCCCCc1ccoc1)N1CCOC1=O,360
24,O=C(CCCCCc1ccc2ccccc2c1)N1CCOC1=O,920
25,O=C(CCCCCCc1ccccc1)N1CCOC1=O,9400
